Results taken from patent US8551984B2, “Aminopyrimidines as SYK inhibitors” (Merck Sharp & Dohme Corp., priority 2009, dated 2013).
pIC50: −log10 of the molar value. Like-named read-outs stand apart in the source and are kept apart here.

Tests used:
[1] = biological target: recombinant human SYK (GST-hSYK fusion protein) (Homo sapiens, UniProt P43405); conditions: read-out: rhSYK Activity
Text: Homogeneous Time-Resolved Fluorescence (HTRF) Assay for the Recombinant Human SYK Enzyme:

rhSYK = rhSYK (Homo sapiens, UniProt P43405)
[2] = read-out: rhSYK activity, class symbol given
[3] = read-out: rhSYK Activity, class symbol, where two forms are listed, one symbol per form
[4] = read-out: rhSYK Activity, Table 119, two symbols in a cell = one per listed form

## Cc1cc(Nc2nccc(C)n2)cc(-c2cnc(C3(O)CCC(C(=O)O)C(C)(C)C3)s2)c1 (centres unmarked) [Example 33A-68]
[1]; Table 33-A
  pIC50: > 7.00

## Cc1cc(Nc2nccc(C(F)(F)F)n2)cc(-c2cnc(C3(O)CCC(NC(=O)CC4CCCO4)CC3)s2)c1 (centres unmarked) [Example 54E-19]
[1]; Table 54E
  pIC50: > 7.00

## Cc1cc(Nc2nccc(C(F)(F)F)n2)cc(-c2cnc(C3(O)CC(C)C(C(=O)O)CC3C)s2)c1 (centres unmarked) [Example 113B-15]
[1]; Table 113B
  pIC50: > 7.00

## Cc1cc(Nc2nccc(C(F)(F)F)n2)cc(-c2cnc(C3(O)CCC(C(=O)O)C(C)(C)C3C)s2)c1 (single isomer, unassigned) [Example 33A-78]
[1]; Table 33-A
  pIC50: > 7.00

## Cc1cc(Nc2nccc(C(F)(F)F)n2)cc(-c2cnc(C3(O)CCCN(C(=O)OC(C)(C)C)CC3)s2)c1 (single isomer, unassigned) [45-2]
[1]; Table 45
  pIC50: 6.00 to 7.00

## Cc1cc(Nc2nccc(C(F)(F)F)n2)cc(-c2cnc(C3(O)CCCN(C(=O)CCC(N)=O)CC3)s2)c1 (single isomer, unassigned) [Example 54D-42]
[1]; Table 54D
  pIC50: > 7.00

## Cc1cc(Nc2nccc(C)n2)cc(-c2cnc(C3(O)CCC(C(=O)O)C(C)C3C)s2)c1 (centres unmarked) [Example 113A-69]
[1]; Table 113A
  pIC50: > 7.00

## Cc1cc(Nc2nccc(C(F)(F)F)n2)cc(-c2cnc(C3(O)CCCC(C(=O)O)C(C)(C)C3)s2)c1 (centres unmarked) [Example 33B-10]
[1]; Table 33B
  pIC50: > 7.00

## Cc1cc(Nc2nccc(C(F)(F)F)n2)cc(-c2cnc([C@]3(O)CC[C@H](C(=O)O)CC3)s2)c1 [33(2)-K, Potassium trans-4-hydroxy-4-[5-(3-methyl-5-{[4-(trifluoromethyl)pyrimidin-2-yl]amino}phenyl)-1,3-thiazol-2-yl]cyclohexanecarboxylate]
rhSYK; [2]
  pIC50: > 7.00

## Cc1cc(Nc2nccc(C(F)(F)F)n2)cc(-c2cnc(C3(O)CCC(CO)CC3)s2)c1 (centres unmarked) [Example 4C-7]
rhSYK; [3]
  pIC50: > 7.00

## COc1cc(C(C)(O)c2ncc(-c3cc(C)cc(Nc4nccc(C(F)(F)F)n4)c3)s2)ccc1C(=O)O (single isomer, unassigned) [Example 4A-66]
rhSYK; [3]
  pIC50: > 7.00

## Cc1cc(Nc2ncc(F)c(C3CC3)n2)cc(-c2cnc(C(C)(O)CO)s2)c1 (centres unmarked) [Ex 5-16]
rhSYK; [3]
  pIC50: > 7.00

## OC1(c2ncc(-c3cc(Nc4nccc(C(F)(F)F)n4)ccc3OCc3ccccc3)s2)CCC1 [Example 1-4]
rhSYK; [3]
  pIC50: 6.00 to 7.00

## CC(O)(c1ncc(-c2cccc(Nc3nccc(C(F)(F)F)n3)c2)s1)C(F)(F)C(F)(F)C(F)(F)F (centres unmarked) [Example 4A-31]
rhSYK; [3]
  pIC50: 5.00 to 6.00

## COC(OC)C(O)(c1ccccn1)c1ncc(-c2cc(C)cc(Nc3nccc(C(F)(F)F)n3)c2)s1 (centres unmarked) [Example 4A-62]
rhSYK; [3]
  pIC50: > 7.00

## O=C(c1ccccc1)N1CCC(O)(c2ncc(-c3cccc(Nc4nccc(C(F)(F)F)n4)c3)s2)CC1 [4D-6]
rhSYK; [3]
  pIC50: > 7.00

## OC(c1ccccn1)(c1nccs1)c1ncc(-c2cccc(Nc3nccc(C(F)(F)F)n3)c2)s1 (centres unmarked) [Example 4A-30]
rhSYK; [3]
  pIC50: 6.00 to 7.00

## COc1cc(C(C)(O)c2ncc(-c3cc(C)cc(Nc4nccc(C(F)(F)F)n4)c3)s2)ccc1C(=O)O (single isomer, unassigned) [Example 4A-65]
rhSYK; [3]
  pIC50: > 7.00

## Cc1cc(Nc2nccc(C(F)(F)F)n2)cc(-c2cnc(C(C)(O)c3cccc(C(=O)O)c3)s2)c1 (centres unmarked) [Example 4A-53]
rhSYK; [3]
  pIC50: > 7.00

## Cc1cc(Nc2nccc(C(F)(F)F)n2)cc(-c2cnc([C@]3(O)CC[C@H](CC(=O)O)CC3)s2)c1 [Example 4C-15]
rhSYK; [3]
  pIC50: > 7.00

## OC(c1ccc(Br)cn1)(c1ncc(-c2cccc(Nc3nccc(C(F)(F)F)n3)c2)s1)C(F)F (centres unmarked) [Example 4A-13]
rhSYK; [3]
  pIC50: 6.00 to 7.00

## Cc1cc(Nc2ncc(F)c(C)n2)cc(-c2cnc(C(C)(O)CO)s2)c1 (centres unmarked) [Ex 5-9]
rhSYK; [3]
  pIC50: > 7.00

## CN(C)CC(C)(O)c1ncc(-c2cccc(Nc3nccc(C(F)(F)F)n3)c2)s1 (centres unmarked) [Example 4A-14]
rhSYK; [3]
  pIC50: 6.00 to 7.00

## CC(O)(c1ccn(S(=O)(=O)c2ccccc2)c1)c1ncc(-c2cccc(Nc3nccc(C(F)(F)F)n3)c2)s1 (centres unmarked) [Example 4A-12]
rhSYK; [3]
  pIC50: 6.00 to 7.00

## Cc1cc(Nc2nccc(C(F)(F)F)n2)cc(-c2cnc(C(O)(CO)C(F)(F)F)s2)c1 (centres unmarked) [Example 6-7]
rhSYK; [3]
  pIC50: > 7.00

## Cc1cc(Nc2nccc(C(F)(F)F)n2)cc(-c2cnc(C(C)(O)CCCC(=O)O)s2)c1 (centres unmarked) [Example 4A-47]
rhSYK; [3]
  pIC50: > 7.00

## CCC(=O)C(O)(CC)c1ncc(-c2cccc(Nc3nccc(C(F)(F)F)n3)c2)s1 (centres unmarked) [Example 4A-28]
rhSYK; [3]
  pIC50: 6.00 to 7.00

## Cc1cc(Nc2ncc(Cl)cn2)cc(-c2cnc(C(C)(O)CO)s2)c1 (centres unmarked) [Ex 5-13]
rhSYK; [3]
  pIC50: 6.00 to 7.00

## Cc1cc(Nc2nccc(C(F)(F)F)n2)cc(-c2cnc(C3(O)CCC(C#N)CC3)s2)c1 (stereo not drawn) [37(2), trans-4-hydroxy-4-[5-(3-methyl-5-{[4-(trifluoromethyl)pyrimidin-2-yl]amino}phenyl)-1,3-thiazol-2-yl]cyclohexanecarbonitrile]
rhSYK; [2]
  pIC50: > 7.00

## OC(c1ccccc1)(c1ncc(-c2cccc(Nc3nccc(C(F)(F)F)n3)c2)s1)C(F)F (centres unmarked) [Example 4A-7]
rhSYK; [3]
  pIC50: 6.00 to 7.00

## Cc1cc(Nc2nccc(C(F)(F)F)n2)cc(-c2cnc(C3(O)CCC(C(N)=O)C3)s2)c1 (single isomer, unassigned) [Example 119-3]
rhSYK; [4]
  pIC50: > 7.00

## Cc1cc(Nc2ncc(Cl)cn2)cc(-c2cnc(C(C)(O)CO)s2)c1 (centres unmarked) [Ex 5-12]
rhSYK; [3]
  pIC50: > 7.00

## COC(=O)C1CCC(O)(c2ncc(-c3cc(C)cc(Nc4nccc(C(F)(F)F)n4)c3)s2)CC1C(C)C (centres unmarked) [Example 4C-25]
rhSYK; [3]
  pIC50: 6.00 to 7.00

## Cc1cc(Nc2ncc(F)c(C3CC3)n2)cc(-c2cnc(C(C)(O)CO)s2)c1 (centres unmarked) [Ex 5-17]
rhSYK; [3]
  pIC50: > 7.00

## Cc1cc(Nc2nccc(C(F)(F)F)n2)cc(-c2cnc(C(O)(CO)C(F)(F)F)s2)c1 (single isomer, unassigned) [Example 6-9]
rhSYK; [3]
  pIC50: > 7.00

## Cc1cc(Nc2nccc(C(F)(F)F)n2)cc(-c2cnc([C@]3(O)CC[C@](C)(O)CC3)s2)c1 [Example 9(1), trans-1-methyl-4-[5-(3-methyl-5-{[4-(trifluoromethyl)pyrimidin-2-yl]amino}phenyl)-1,3-thiazol-2-yl]cyclohexane-1,4-diol]
rhSYK; [2]
  pIC50: > 7.00

## Cc1cc(Nc2nccc(OC(C)C)n2)cc(-c2cnc(C3(O)CCC(C(N)=O)C(C)(C)C3)s2)c1 (centres unmarked) [Example 119-126]
rhSYK; [4]
  pIC50: > 7.00

## Cc1cc(Nc2nccc(C(F)(F)F)n2)cc(-c2cnc(C(C)(O)c3cccc(C(=O)O)c3)s2)c1 (single isomer, unassigned) [Example 4A-54]
rhSYK; [3]
  pIC50: > 7.00

## Cc1cc(Nc2nccc(C(F)(F)F)n2)cc(-c2cnc(C3(O)CCN(C(=O)OC(C)(C)C)CC3)s2)c1 [Example 45, tert-butyl-4-hydroxy-4-[5-(3-methyl-5-{[4-(trifluoromethyl)pyrimidin-2-yl]amino}phenyl)-1,3-thiazol-2-yl]piperidine-1-carboxylate]
rhSYK; [2]
  pIC50: 6.00 to 7.00

## Cc1cc(Nc2nccc(C(C)O)n2)cc(-c2cnc(C3(O)CCC(C(N)=O)C(C)(C)C3)s2)c1 (centres unmarked) [Example 119-121]
rhSYK; [4]
  pIC50: > 7.00

## Cc1cc(Nc2nccc(C(F)(F)F)n2)cc(-c2cnc(C3(O)CCC(C(=O)O)CC3)s2)c1 (single isomer, unassigned) [33(1), trans-4-hydroxy-4-[5-(3-methyl-5-{[4-(trifluoromethyl)pyrimidin-2-yl]amino}phenyl)-1,3-thiazol-2-yl]cyclohexanecarboxylic acid]
rhSYK; [2]
  pIC50: > 7.00

## CC(=O)OCCC(C)(O)c1ncc(-c2cccc(Nc3nccc(C(F)(F)F)n3)c2)s1 (centres unmarked) [Example 4A-25]
rhSYK; [3]
  pIC50: 6.00 to 7.00

## Cc1cc(Nc2nccc(C(F)(F)F)n2)cc(-c2cnc(C(C)(O)c3ccc(N4CC(C(=O)O)CC4=O)cc3)s2)c1 (centres unmarked) [Example 4A-78]
rhSYK; [3]
  pIC50: > 7.00

## OC(c1ncc(-c2cccc(Nc3nccc(C(F)(F)F)n3)c2)s1)C(F)(F)F (centres unmarked) [Example 6-2]
rhSYK; [3]
  pIC50: > 7.00

## COc1cc(C(C)(O)c2ncc(-c3cc(C)cc(Nc4nccc(C(F)(F)F)n4)c3)s2)ccc1C(=O)O (centres unmarked) [Example 4A-64]
rhSYK; [3]
  pIC50: > 7.00

## CC(C)n1cc(C(O)c2ncc(-c3cccc(Nc4nccc(C(F)(F)F)n4)c3)s2)cn1 (centres unmarked) [Example 4A-20]
rhSYK; [3]
  pIC50: 6.00 to 7.00

## OC(c1ccoc1)c1ncc(-c2cccc(Nc3nccc(C(F)(F)F)n3)c2)s1 (centres unmarked) [Example 4A-17]
rhSYK; [3]
  pIC50: > 7.00

## OC(c1cccnc1)(c1nnco1)c1ncc(-c2cccc(Nc3nccc(C(F)(F)F)n3)c2)s1 (centres unmarked) [Example 4A-27]
rhSYK; [3]
  pIC50: 6.00 to 7.00

## Cc1cc(Nc2nccc(C(F)(F)F)n2)cc(-c2cnc(C3(O)CCC3)s2)c1 [Example 4B-1]
rhSYK; [3]
  pIC50: > 7.00

## Cc1cc(Nc2nccc(C(F)(F)F)n2)cc(-c2cnc(C(O)(CF)CF)s2)c1 [Example 4A-34]
rhSYK; [3]
  pIC50: > 7.00

## OC(c1ncc(-c2cccc(Nc3nccc(C(F)(F)F)n3)c2)s1)(C1CCCCC1)C(F)(F)F (centres unmarked) [Example 4A-11]
rhSYK; [3]
  pIC50: 5.00 to 6.00

## Cc1cc(Nc2nccc(C(F)(F)F)n2)cc(-c2cnc(C(C)(O)c3ccc(CC(=O)O)cc3)s2)c1 (single isomer, unassigned) [Example 4A-60]
rhSYK; [3]
  pIC50: > 7.00

## Cc1cc(Nc2nccc(C(F)(F)F)n2)cc(-c2cnc(C3(O)CCC(CC(N)=O)CC3)s2)c1 (centres unmarked) [Example 117-10]
rhSYK; read-out: rhSYK Activity, Table 117
  pIC50: > 7.00

## Cc1cc(Nc2nccc(C(F)(F)F)n2)cc(-c2cnc(C(O)(c3ccccn3)C(C)C)s2)c1 (centres unmarked) [Example 4A-49]
rhSYK; [3]
  pIC50: 6.00 to 7.00

## Cc1cc(Nc2nccc(C(F)(F)F)n2)cc(-c2cnc(C3(O)CCC(C#N)CC3)s2)c1 (stereo not drawn) [37(1), cis-4-hydroxy-4-[5-(3-methyl-5-{[4-(trifluoromethyl)pyrimidin-2-yl]amino}phenyl)-1,3-thiazol-2-yl]cyclohexanecarbonitrile]
rhSYK; [2]
  pIC50: > 7.00

## COC(=O)c1ccc(C(O)c2ncc(-c3cc(C)cc(Nc4nccc(C(F)(F)F)n4)c3)s2)cc1 (centres unmarked) [Example 4A-52]
rhSYK; [3]
  pIC50: 6.00 to 7.00

## OC1(c2ncc(-c3cc(Nc4nccc(C(F)(F)F)n4)ccc3OC(F)(F)F)s2)CCC1 [Example 1-3]
rhSYK; [3]
  pIC50: 6.00 to 7.00

## Cc1cc(Nc2nccc(C(F)(F)F)n2)cc(-c2cnc(C(=O)CCC(=O)CCO)s2)c1 [Example 4B-62]
rhSYK; [3]
  pIC50: 6.00 to 7.00

## Cc1cc(Nc2nccc(C(F)(F)F)n2)cc(-c2cnc(C3(O)CCCC4(OCCO4)C3(C)C)s2)c1 (centres unmarked) [Example 4B-28]
rhSYK; [3]
  pIC50: 6.00 to 7.00
